Legend:
[1] = test system: Staphylococcus aureus S13E; test: MIC, standard agar-dilution assay (Table II); format: cell-based; design: unit not given here
Protocol: (§1) The MIC's in Table II were determined by standard agar-dilution assays. The MIC's in Table III were obtained using a conventional broth-dilution microtiter test.

[2] = test system: Staphylococcus aureus V41; test: MIC, standard agar-dilution assay (Table II); format: cell-based; design: unit not given here; settings: Staphylococcus aureus V41, penicillin-resistant strain
Protocol: as §1

[3] = test system: Staphylococcus aureus X1.1; test: MIC, standard agar-dilution assay (Table II); format: cell-based; design: unit not given here
Protocol: as §1

[4] = test system: Staphylococcus aureus X400; test: MIC, standard agar-dilution assay (Table II); format: cell-based; design: unit not given here; settings: Staphylococcus aureus X400, methicillin-resistant strain
Protocol: as §1

[5] = test system: Staphylococcus epidermidis EPI1; test: MIC, standard agar-dilution assay (Table II); format: cell-based; design: unit not given here
Protocol: as §1

[6] = test system: Staphylococcus epidermidis EPI2; test: MIC, standard agar-dilution assay (Table II); format: cell-based; design: unit not given here
Protocol: as §1

[7] = test system: Streptococcus Group D 9960; test: MIC, standard agar-dilution assay (Table II); format: cell-based; design: unit not given here
Protocol: as §1

[8] = test system: Streptococcus Group D X66; test: MIC, standard agar-dilution assay (Table II); format: cell-based; design: unit not given here
Protocol: as §1

[9] = test system: Streptococcus pneumoniae Park I; test: MIC, standard agar-dilution assay (Table II); format: cell-based; design: unit not given here
Protocol: as §1

[10] = test system: Streptococcus pyogenes C203; test: MIC, standard agar-dilution assay (Table II); format: cell-based; design: unit not given here
Protocol: as §1

Mycoplasma gallisepticum = test: MIC, broth-dilution microtiter test (Table III); format: cell-based; design: unit not given here
Protocol: as §1

Mycoplasma hyorhinis = test: MIC, broth-dilution microtiter test (Table III); format: cell-based; design: unit not given here
Protocol: as §1

Mycoplasma synoviae = test: MIC, broth-dilution microtiter test (Table III); format: cell-based; design: unit not given here
Protocol: as §1

[11] = test system: Pasteurella haemolytica 22C; test: MIC, broth-dilution microtiter test (Table III); format: cell-based; design: unit not given here
Protocol: as §1

[12] = test system: Pasteurella haemolytica 23C; test: MIC, broth-dilution microtiter test (Table III); format: cell-based; design: unit not given here
Protocol: as §1

[13] = test system: Pasteurella haemolytica 41D; test: MIC, broth-dilution microtiter test (Table III); format: cell-based; design: unit not given here
Protocol: as §1

[14] = test system: Pasteurella multocida 17E; test: MIC, broth-dilution microtiter test (Table III); format: cell-based; design: unit not given here; settings: bovine isolate
Protocol: as §1

[15] = test system: Pasteurella multocida 22A; test: MIC, broth-dilution microtiter test (Table III); format: cell-based; design: unit not given here
Protocol: as §1

[16] = test system: Pasteurella multocida 40G; test: MIC, broth-dilution microtiter test (Table III); format: cell-based; design: unit not given here
Protocol: as §1

[17] = test system: Pasteurella multocida 60A; test: MIC, broth-dilution microtiter test (Table III); format: cell-based; design: unit not given here; settings: avian isolate
Protocol: as §1

[18] = test system: Pasteurella multocida 68C; test: MIC, broth-dilution microtiter test (Table III); format: cell-based; design: unit not given here
Protocol: as §1

Staphylococcus aureus = test: MIC, broth-dilution microtiter test (Table III); format: cell-based; design: unit not given here
Protocol: as §1

Streptococcus sp. 80 = test: MIC, broth-dilution microtiter test (Table III); format: cell-based; design: unit not given here
Protocol: as §1

Pasteurella multocida = test: Treatment of Pasteurella infections in chicks (Table V); format: in vivo, one-day-old chicks; settings: Pasteurella multocida, sc, 4 h; 30 mg/kg by subcutaneous injection one and four hours post challenge; read-out: Deaths in Treated Chicks/Number Treated (converted)
Protocol: Certain OMT ester derivatives are active in vivo against Pasteurella infections. Table V summarizes the results of tests in which the ester derivatives were administered to one-day-old chicks at a dosage level of 30 mg/kg by subcutaneous injection one and four hours post challenge of the chicks with Pasteurella multocida (0.1 ml of a 10^-3 dilution of a 20-hour tryptose broth culture of avian P. multocida given subcutaneously). All nonmedicated infected chicks (ten in each control group) died within 24 hours of Pasteurella challenge.

[19] = test system: Haemophilus influenzae Holt; test: MIC, standard agar-dilution assay (Table II); format: cell-based; design: unit not given here; settings: ampicillin-sensitive strain
Protocol: as §1

[20] = test system: Haemophilus influenzae R252; test: MIC, standard agar-dilution assay (Table II); format: cell-based; design: unit not given here; settings: Haemophilus influenzae R252, ampicillin-resistant strain
Protocol: as §1

Row | Structure (SMILES) | minimal inhibitory concentration (MIC) [1] | minimal inhibitory concentration (MIC) [2] | minimal inhibitory concentration (MIC) [3] | minimal inhibitory concentration (MIC) [4] | minimal inhibitory concentration (MIC) [5] | minimal inhibitory concentration (MIC) [6] | minimal inhibitory concentration (MIC) [7] | minimal inhibitory concentration (MIC) [8] | minimal inhibitory concentration (MIC) [9] | minimal inhibitory concentration (MIC) [10] | minimal inhibitory concentration (MIC) (Mycoplasma gallisepticum) | minimal inhibitory concentration (MIC) (Mycoplasma hyorhinis) | minimal inhibitory concentration (MIC) (Mycoplasma synoviae) | minimal inhibitory concentration (MIC) [14] | minimal inhibitory concentration (MIC) [17] | minimal inhibitory concentration (MIC) (Staphylococcus aureus) | minimal inhibitory concentration (MIC) (Streptococcus sp. 80) | mortality at 30 mg/kg (Pasteurella multocida) | minimal inhibitory concentration (MIC) [19] | minimal inhibitory concentration (MIC) [20] | other results
1 | CCC1OC(=O)CC(O)C(C)C(OC2OC(C)C(OC(C)=O)C(N(C)C)C2OC(C)=O)C(CC=O)CC(C)C(=O)C=CC(C)=CC1COC(=O)[C@H](O)c1ccccc1 (stereo partly drawn) [Compound 41, 2',4'-Di-O-acetyl-23-O-(D-mandeloyl)-OMT] | 0.25 | 0.25 | 0.125 | 0.5 | 0.25 | 0.25 | 0.25 | 0.125 | 0.03 | 0.06 | 0.195 | 12.5 | 0.39 | 3.12 | 3.12 | 0.78 | 0.195 | 100% | – | – | minimal inhibitory concentration (MIC) [11]: 6.25; minimal inhibitory concentration (MIC) [12]: 6.25; minimal inhibitory concentration (MIC) [13]: 6.25; minimal inhibitory concentration (MIC) [15]: 3.12; minimal inhibitory concentration (MIC) [16]: 3.12; minimal inhibitory concentration (MIC) [18]: 3.12
2 | CCCC(=O)OCC1C=C(C)C=CC(=O)C(C)CC(CC=O)C(OC2OC(C)C(O)C(N(C)C)C2O)C(C)C(O)CC(=O)OC1CC (centres unmarked) [Compound 16] | 0.25 | 0.25 | 0.25 | 0.5 | 0.25 | 0.25 | 0.25 | 0.25 | 0.06 | 0.25 | < 0.05 | 0.78 | 0.097 | 1.56 | 3.12 | 0.39 | 0.195 | 60% | 2 | 2 | –
3 | CCC1OC(=O)CC(O)C(C)C(OC2OC(C)C(OC(C)=O)C(N(C)C)C2OC(C)=O)C(CC=O)CC(C)C(=O)C=CC(C)=CC1COC(=O)CC(C)C (centres unmarked) [Compound 21, 2',4'-Di-O-acetyl-23-O-i-valeryl-OMT] | 0.5 | 0.5 | 0.5 | 1 | 0.5 | 0.5 | 0.5 | 0.5 | 0.5 | 0.5 | < 0.05 | 0.78 | < 0.05 | 1.56 | 1.56 | 0.39 | 0.195 | 100% | 2 | 8 | –
4 | CCCC(=O)OCC1C=C(C)C=CC(=O)C(C)CC(CC=O)C(OC2OC(C)C(OC(C)=O)C(N(C)C)C2OC(C)=O)C(C)C(O)CC(=O)OC1CC (centres unmarked) [Compound 15] | 0.25 | 0.5 | 0.25 | 0.5 | 0.25 | 0.5 | 0.5 | 0.5 | 0.25 | 0.25 | < 0.05 | 0.78 | < 0.05 | 1.56 | 1.56 | 0.39 | 0.097 | 100% | 2 | 2 | –
5 | CCC1OC(=O)CC(O)C(C)C(OC2OC(C)C(O)C(N(C)C)C2O)C(CC=O)CC(C)C(=O)C=CC(C)=CC1COC(=O)C(C)C (centres unmarked) [Compound 18] | 0.25 | 0.5 | 0.25 | 0.5 | 0.25 | 0.5 | 0.5 | 0.5 | 0.25 | 0.5 | < 0.05 | 0.39 | < 0.05 | 1.56 | 3.12 | 0.78 | 0.195 | 0% | 2 | 4 | –

From patent US4401660A, “Ester derivatives of 5-O-mycaminosyl tylonolide and method of using same” (Eli Lilly and Company, priority 1981, dated 1983)
